# Test results from the supplement of paper PMC11208160.
# Assay: recombinant barcode read abundance after kanamycin selection (control-corrected) (log10(CPM+1)); higher = more efficient recombination; sequences stand for … in AGTGCAGAGAAAATCGGCCAGTTTTCTCTGCCTGCAGTCCGCATGCCGT…AGATTTATGCAGCGGACTGCCTTTCTCCCAAAGTGATAAACCGGACAGTATCATGGACCGGTTTTCCCGGTAATCCGTATTTGCAAGGTTGGTTTCACT; site = the 11-nt target
# Procedure: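 Pooled E. coli target-specificity screen for the IS621 bridge recombinase. Each library plasmid pairs an 11-nt target (CT core) with a bridge RNA whose target-binding loop (9-nt LTG + 4-nt RTG) is reprogrammed; the rest of the 177-nt WT IS621 bridge RNA scaffold is fixed. The plasmid is co-electroporated with a WT donor plasmid; recombinase is induced with 0.1 mM IPTG and recombinants are selected on kanamycin. Recombinant barcodes are sequenced, converted to CPM, averaged over two biological replicates and corrected by the unselected control CPM. Molecule = full bridge RNA written as DNA: LTG = specificity nt 1-9, RTG = reverse complement of specificity nt 8-11, in the WT scaffold.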
# 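For recombinant UMI read abundance after kanamycin selection (control-corrected) in this document: IS621 bridge recombinase in Escherichia coli cells against a fixed T5 target plasmid.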
# 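For recombinant barcode read abundance after kanamycin selection (control-corrected) in this document: IS621 recombinase and bridge RNA in Escherichia coli cells.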
row,Sequence,recombinant barcode read abundance (log10)
1,AAACCGCCTTGGGTTCTAACCTGTTGCCT (site AAACCGCCTAG),1.11
2,AAACCGCCTTGGGTTCTAACCTGTTGCCT (site AAACGGCCTAG),0.163
3,AAACGGCCTTGGGTTCTAACCTGTTGCCT (site AAACCGCCTAG),0.147
4,AAACGGCCTTGGGTTCTAACCTGTTGCCT (site AAACGGCCTAG),0.522
5,AAACGGTCTTGGGTTCTAACCTGTTGCTA (site AAACGGTCTTA),1.53
6,AAACGGTCTTGGGTTCTAACCTGTTGCTA (site AAATGGTCTTA),0.131
7,AAAGCTACTTGGGTTCTAACCTGTTGCCT (site AAAGCTACTAG),1.11
8,AAAGCTACTTGGGTTCTAACCTGTTGCCT (site AAAGCTCCTAA),0.124
9,AAAGGGGCTTGGGTTCTAACCTGTTGCCT (site AAAGGGGCTAG),2.2
10,AAAGGGGCTTGGGTTCTAACCTGTTGCCT (site TTGCATTCTCA),0.155
11,AAAGGGTCTTGGGTTCTAACCTGTTGCCT (site AAAGGGTCTAG),1.8
12,AAAGGGTCTTGGGTTCTAACCTGTTGCCT (site ACAGGGTCTAG),0.327
13,AAAGGGTCTTGGGTTCTAACCTGTTGCCT (site AGAGGGTCTAG),0.0828
14,AAAGGGTCTTGGGTTCTAACCTGTTGCCT (site ATAGGGTCTAG),0.689
15,AAAGGTCCTTGGGTTCTAACCTGTTGCAG (site AAAGGTCCTCT),2.69
16,AAAGGTCCTTGGGTTCTAACCTGTTGCAG (site CTTTAGTCTTA),0.0927
17,AAAGGTTCTTGGGTTCTAACCTGTTGCCT (site AAAGGTTCTAG),1.58
18,AAAGGTTCTTGGGTTCTAACCTGTTGCCT (site ACAGGTTCTAG),0.0935
19,AAAGGTTCTTGGGTTCTAACCTGTTGCCT (site AGAGGTTCTAG),0.0624
20,AAAGGTTCTTGGGTTCTAACCTGTTGCCT (site ATAGGTTCTAG),0.126
21,AAAGTACCTTGGGTTCTAACCTGTTGCCT (site AAAGTACCTAG),2
22,AAAGTACCTTGGGTTCTAACCTGTTGCCT (site CAAGTACCTAG),0.741
23,AAAGTACCTTGGGTTCTAACCTGTTGCCT (site GAAGTACCTAG),0.0449
24,AAAGTACCTTGGGTTCTAACCTGTTGCCT (site TAAGTACCTAG),1.16
25,AAAGTCCCTTGGGTTCTAACCTGTTGCCT (site AAAGTCCCTAG),1.03
26,AAAGTCCCTTGGGTTCTAACCTGTTGCCT (site CAAGTCCCTAG),0.361

row,Sequence,recombinant barcode read abundance (log10)
1,AAAGTCCCTTGGGTTCTAACCTGTTGCCT (site GAAGTCCCTAG),0.218
2,AAAGTCCCTTGGGTTCTAACCTGTTGCCT (site TAAGTCCCTAG),0.481
3,AAATGGTCTTGGGTTCTAACCTGTTGCTA (site AAACGGTCTTA),0.814
4,AAATGGTCTTGGGTTCTAACCTGTTGCTA (site AAATGGTCTTA),1.69
5,AAATGTACTTGGGTTCTAACCTGTTGCCT (site AAATGTACTAG),1.04
6,AAATGTACTTGGGTTCTAACCTGTTGCCT (site TGGGTCCCTTC),0.0555
7,AACAATGCTTGGGTTCTAACCTGTTGCCT (site AACAATGCTAG),0.713
8,AACAATGCTTGGGTTCTAACCTGTTGCCT (site AACACTGCTAG),0.33
9,AACAATGCTTGGGTTCTAACCTGTTGCCT (site AACAGTGCTAG),0.207
10,AACAATGCTTGGGTTCTAACCTGTTGCCT (site AACATTGCTAG),0.0444
11,AACAGACCTTGGGTTCTAACCTGTTGCCT (site AACAGACCTAG),1.62
12,AACAGACCTTGGGTTCTAACCTGTTGCCT (site CACAGACCTAG),0.116
13,AACAGACCTTGGGTTCTAACCTGTTGCCT (site GACAGACCTAG),0.291
14,AACAGACCTTGGGTTCTAACCTGTTGCCT (site TACAGACCTAG),0.686
15,AACAGGGCTTGGGTTCTAACCTGTTGCCG (site AACAGGGCTCG),1.22
16,AACAGGGCTTGGGTTCTAACCTGTTGCCG (site TGGCATCCTAC),0.0251
17,AACAGGTCTTGGGTTCTAACCTGTTGCCT (site AACAGGTCTAG),0.902
18,AACAGGTCTTGGGTTCTAACCTGTTGCCT (site ACCAGGTCTAG),0.175
19,AACAGGTCTTGGGTTCTAACCTGTTGCCT (site AGCAGGTCTAG),0.0529
20,AACAGGTCTTGGGTTCTAACCTGTTGCCT (site ATCAGGTCTAG),0.0485
21,AACATTCCTTGGGTTCTAACCTGTTGCCT (site AACATTCCTAG),0.151
22,AACATTCCTTGGGTTCTAACCTGTTGCCT (site CACATTCCTAG),0
23,AACATTCCTTGGGTTCTAACCTGTTGCCT (site GACATTCCTAG),0.355
24,AACATTCCTTGGGTTCTAACCTGTTGCCT (site TACATTCCTAG),0.0261
25,AACATTGCTTGGGTTCTAACCTGTTGCCT (site AACAATGCTAG),0.765
26,AACATTGCTTGGGTTCTAACCTGTTGCCT (site AACACTGCTAG),0.695

# Assay: recombinant UMI read abundance after kanamycin selection (control-corrected) (log10(CPM+1)); higher = more efficient recombination; extreme values may be limits of the assay; sequences stand for … in AGTGCAGAGAAAATCGGCCAGTTTTCTCTGCCTGCAGTCCGCATGCCGTGGGACCCCTTGGGTTCTAACCTGTTGCCTAGATTTATGCAGCGGACTGCCTTTCTCCCAAAGTGATAAACCGG…AGGTTGGTTTCACT; site = the 11-nt donor
# Procedure, shortened: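 Two replicates each of selected and unselected plating were used in this pooled Escherichia coli screen of donor and donor-binding-loop pairs for the IS621 bridge recombinase. Selection was with IPTG (0.07 mM) and kanamycin. Counts of recombinant UMIs, amplified across the donor–target junction, were converted to CPM, averaged, scaled by control-derived factors and reported as log10(CPM+1).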
row,Sequence,recombinant UMI read abundance (log10)
1,TTTGGGGCATGGACCGGTTTTCCCGGTAATCCGTATTTGCT (site TTTGCGGCTAG),0.00428
2,TTTGGGGCATGGACCGGTTTTCCCGGTAATCCGTATTTGCT (site TTTGGGGCTAG),1.61
3,TTTGGGGCATGGACCGGTTTTCCCGGTAATCCGTATTTGCT (site TTTGTGGCTAG),0.0107
4,TTTGTAGCATGGACCGGTTTTCCCGGTAATCCGTATTTGGA (site TTTGTAGCTTC),0.00646
5,TTTGTGTCATGGACCGGTTTTCCCGGTAATCCGTATTTGCG (site TTTGTGTCTCG),0.535
6,TTTGTTTCATGGACCGGTTTTCCCGGTAATCCGTATTTGTT (site TTTGTTTCTAA),0
